Data taken from patent US7138361B2, “Herbicidal heterocycles” (E. I. du Pont de Nemours and Company, priority 2000, dated 2006).

Columns and labels:
Type in all cases: in vivo
[1] = system: barnyardgrass (Echinochloa crus-galli); experiment: Test B postemergence; conditions: 13 to 15 days
How it was run: (§1)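 Seeds were planted and sprayed preemergence with test chemical in a non-phytotoxic solvent mixture containing surfactant; postemergence plants (2 to 18 cm, 1- to 4-leaf stage) received the same formulation. Greenhouse hold 13 to 15 days, then visual rating versus untreated controls on a 0–100 scale (0 no effect, 100 complete control).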

corn (Zea mays) [2] = experiment: Test B postemergence; conditions: 13 to 15 days
How it was run: as §1

[3] = system: wheat (Triticum aestivum); experiment: Test B postemergence; conditions: 13 to 15 days
How it was run: as §1

wild oat (Avena fatua) = experiment: Test B postemergence; conditions: 13 to 15 days
How it was run: as §1

Nightshade [4] = experiment: Test C preemergence
corn (Zea mays) [5] = experiment: Test C preemergence
How it was run: (§2)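 Compounds in non-phytotoxic solvent with surfactant applied preemergence to planted seeds and postemergence to plants at 1- to 4-leaf stage (2–18 cm). Kept in greenhouse 12–14 days, then visually rated against controls on a 0 (no effect) to 100 (complete control) scale.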

[6] = system: johnsongrass (Sorghum halepense); experiment: Test C preemergence
How it was run: as §2

kochia (Kochia scoparia) = experiment: Test C preemergence
How it was run: as §2

[7] = system: lambsquarters (Chenopodium album); experiment: Test C preemergence
How it was run: as §2

[8] = system: pigweed (Amaranthus retroflexus); experiment: Test C preemergence
How it was run: as §2

soybean (Glycine max) = experiment: Test C preemergence
How it was run: as §2

[9] = system: woolly cupgrass (Eriochloa villosa); experiment: Test C preemergence
How it was run: as §2

[10] = system: yellow nutsedge (Cyperus esculentus); experiment: Test C preemergence
How it was run: as §2

[11] = system: barnyardgrass (Echinochloa crus-galli); experiment: Test C flooded paddy test; conditions: for Plant response rating, Barnyardgrass: flooded paddy test, scale 0 to 100 (0 no effect, 100 complete control)
How it was run: (§3)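 Each species was cultivated to 2 leaves in flooded paddy pots, then treated. After a greenhouse period of 12–14 days, the plants were scored visually relative to controls from 0 (no effect) to 100 (complete control).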

[12] = system: duck salad (Heteranthera limosa); experiment: Test C flooded paddy test; conditions: for Ducksalad plant response rating: Flooded Paddy, scale 0 to 100, 0 no effect, 100 complete control; for Plant response rating, Ducksalad: flooded paddy test, scale 0 to 100 (0 no effect, 100 complete control)
How it was run: as §3

rice (Oryza saliva) = experiment: Test C flooded paddy test; conditions: for Rice plant response rating: Flooded Paddy, scale 0 to 100, 0 no effect, 100 complete control; for Plant response rating, Rice: flooded paddy test, scale 0 to 100 (0 no effect, 100 complete control)
How it was run: as §3

[13] = system: smallflower flatsedge (Cyperus difformis); experiment: Test C flooded paddy test; conditions: for Flatsedge plant response rating: Flooded Paddy, scale 0 to 100, 0 no effect, 100 complete control; for Plant response rating, Flatsedge: flooded paddy test, scale 0 to 100 (0 no effect, 100 complete control)
How it was run: as §3

Nightshade [14] = experiment: Test C preemergence; conditions: Rate 250 g/ha, visual evaluation after 12 to 14 days
Sunflower = experiment: Test C preemergence; conditions: Rate 125 g/ha, scale 0 to 100, 0 no effect, 100 complete control
[15] = Rate 125 g/ha, scale 0 (no effect) to 100 (complete control)
[16] = Rate 500 g/ha, scale 0 to 100, 0 is no effect, 100 is complete control
[17] = Rate 62 g/ha, scale 0 to 100, 0 no effect, 100 complete control
[18] = Preemergence, Rate 500 g/ha, scale 0 to 100
[19] = preemergence, Rate 250 g/ha, visual evaluation after 12 to 14 days
[20] = preemergence, Rate 125 g/ha, scale 0 to 100, 0 no effect, 100 complete control

SMILES: O=C1C(n2ccc(C3CCCCC3)n2)OCN1c1cccc(C(F)(F)F)c1 (stereo not drawn) [Compound 51]
- Plant response rating, Barnyardgrass [1, 15]: 0
- Plant response rating, Barnyardgrass [1, 16]: 0
- Plant response rating, Corn (corn (Zea mays) [2]; [15]): 0
- Plant response rating, Corn (corn (Zea mays) [2]; [16]): 0
- Plant response rating, Wheat [3, 15]: 0
- Plant response rating, Wheat [3, 16]: 0
- Plant response rating, Wild Oat (wild oat (Avena fatua); [15]): 0
- Plant response rating, Wild Oat (wild oat (Avena fatua); [16]): 0
- Plant response rating, Nightshade (Nightshade [4]; [17]): 0
- Plant response rating, Nightshade (Nightshade [4]; Rate 125 g/ha, scale 0 to 100, 0 no effect, 100 complete control): 0
- Plant response rating, Nightshade (Nightshade [4]; Rate 500 g/ha, scale 0 to 100): 60
- Plant response rating, Corn (corn (Zea mays) [5]; [18]): 0
- Plant response rating, Corn (corn (Zea mays) [5]; [17]): 0
- Plant response rating (0 to 100), Corn (corn (Zea mays) [5]; [19]): 0
- Plant response rating, Johnsongrass [6, 18]: 90
- Plant response rating, Johnsongrass [6, 17]: 20
- Plant response rating (0 to 100), Johnsongrass [6, 19]: 60
- Plant response rating, Johnsongrass [6, 20]: 20
- Plant response rating, Kochia (kochia (Kochia scoparia); [18]): 80
- Plant response rating, Kochia (kochia (Kochia scoparia); [17]): 40
- Plant response rating (0 to 100), Kochia (kochia (Kochia scoparia); [19]): 50
- Plant response rating, Kochia (kochia (Kochia scoparia); [20]): 50
- Plant response rating, Lambsquarters [7, 18]: 100
- Plant response rating, Lambsquarters [7, 17]: 60
- Plant response rating (0 to 100), Lambsquarters [7, 19]: 100
- Plant response rating, Lambsquarters [7, 20]: 100
- Plant response rating, Pigweed [8, 18]: 30
- Plant response rating (0 to 100), Pigweed [8, 19]: 100
- Plant response rating, Pigweed [8, 20]: 0
- Plant response rating, Soybean (soybean (Glycine max); [18]): 30
- Plant response rating (0 to 100), Soybean (soybean (Glycine max); [19]): 20
- Plant response rating, Soybean (soybean (Glycine max); [20]): 0
- Plant response rating, Cupgrass, Woolly [9, 18]: 100
- Plant response rating, Cupgrass, Woolly [9, 17]: 50
- Plant response rating (0 to 100), Cupgrass, Woolly [9, 19]: 80
- Plant response rating, Cupgrass, Woolly [9, 20]: 50
- Plant response rating, Nutsedge [10, 18]: 30
- Plant response rating, Nutsedge [10, 17]: 20
- Plant response rating (0 to 100), Nutsedge [10, 19]: 30
- Plant response rating, Nutsedge [10, 20]: 20
- Barnyardgrass plant response rating ([11]; Flooded Paddy, Rate 250 g/ha, scale 0 to 100, 0 no effect, 100 complete control): 90
- Plant response rating, Barnyardgrass ([11]; Rate 62 g/ha): 20
- Plant response rating, Barnyardgrass ([11]; Rate 125 g/ha): 20
- Ducksalad plant response rating ([12]; Rate 250 g/ha): 40
- Ducksalad plant response rating ([12]; Rate 500 g/ha): 70
- Plant response rating, Ducksalad ([12]; Rate 62 g/ha): 0
- Plant response rating, Ducksalad ([12]; Rate 125 g/ha): 0
- Rice plant response rating (rice (Oryza saliva); Rate 250 g/ha): 0
- Rice plant response rating (rice (Oryza saliva); Rate 500 g/ha): 0
- Plant response rating, Rice (rice (Oryza saliva); Rate 62 g/ha): 0
- Plant response rating, Rice (rice (Oryza saliva); Rate 125 g/ha): 0
- Flatsedge plant response rating ([13]; Rate 250 g/ha): 100
- Flatsedge plant response rating ([13]; Rate 500 g/ha): 100
- Plant response rating, Flatsedge ([13]; Rate 62 g/ha): 40
- Plant response rating, Flatsedge ([13]; Rate 125 g/ha): 90
- Plant response rating (0 to 100), Nightshade (Nightshade [14]): 0
- Plant response rating, Sunflower (Sunflower): 0
